This is an account of results in patent US20080171716A1, “NUCLEIC ACID MODULATION OF TOLL-LIKE RECEPTOR-MEDIATED IMMUNE STIMULATION” (Protiva Biotherapeutics, Inc., priority 2006, published 2008).

For series [1], the target named is T1, TLR7 (Mus musculus, UniProt P58681).
T1 sequence (P58681 27-1050): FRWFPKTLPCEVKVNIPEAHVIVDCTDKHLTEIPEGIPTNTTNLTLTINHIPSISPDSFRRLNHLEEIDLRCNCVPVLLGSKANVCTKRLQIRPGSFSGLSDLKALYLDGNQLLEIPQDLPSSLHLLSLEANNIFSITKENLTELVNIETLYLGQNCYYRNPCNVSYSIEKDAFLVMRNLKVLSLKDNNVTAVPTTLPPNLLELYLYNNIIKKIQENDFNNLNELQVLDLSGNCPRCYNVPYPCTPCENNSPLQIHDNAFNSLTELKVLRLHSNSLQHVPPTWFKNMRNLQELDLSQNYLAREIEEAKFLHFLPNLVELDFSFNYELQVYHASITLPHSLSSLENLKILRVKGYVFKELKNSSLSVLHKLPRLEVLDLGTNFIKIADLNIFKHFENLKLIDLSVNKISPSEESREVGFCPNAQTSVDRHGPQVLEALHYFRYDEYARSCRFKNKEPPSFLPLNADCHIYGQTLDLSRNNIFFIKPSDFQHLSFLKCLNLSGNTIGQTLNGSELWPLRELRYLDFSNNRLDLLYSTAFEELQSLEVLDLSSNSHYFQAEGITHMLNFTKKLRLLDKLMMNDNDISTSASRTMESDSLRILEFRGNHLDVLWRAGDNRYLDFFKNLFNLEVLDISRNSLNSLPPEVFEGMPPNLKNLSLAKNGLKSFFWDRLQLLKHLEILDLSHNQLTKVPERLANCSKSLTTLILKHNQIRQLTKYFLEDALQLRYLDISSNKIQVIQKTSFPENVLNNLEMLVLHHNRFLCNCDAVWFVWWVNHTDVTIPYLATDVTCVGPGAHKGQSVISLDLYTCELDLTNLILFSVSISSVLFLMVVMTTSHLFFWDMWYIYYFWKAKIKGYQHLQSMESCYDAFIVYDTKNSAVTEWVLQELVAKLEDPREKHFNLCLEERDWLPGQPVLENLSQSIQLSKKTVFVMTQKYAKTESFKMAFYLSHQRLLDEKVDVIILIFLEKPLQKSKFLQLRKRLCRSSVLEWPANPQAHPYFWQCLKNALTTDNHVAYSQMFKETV
The series can be described thus: Immunostimulatory ssRNA-induced IFN-α/IL-6 production in murine Flt3L-derived dendritic cells. The class given is cell-based. On the set-up: Femurs and tibiae of female Balb/C mice were isolated; endogenous in cells; host or cells: Flt3L-derived dendritic cells cultured from bone marrow of female Balb/C mice. The settings on record: murine Flt3L DC; 1:1 molar ratio; 24 h. As to the method: Lipid Encapsulation of RNA and ODN. RNA or ODN were encapsulated in liposomes by a process of spontaneous vesicle formation as described in Judge et al., supra, and Jeffs et al., Pharm. Res., 22:362-372 (2005).
Flt3L-derived dendritic cells (DC) were generated as described in Gilliet et al., J. Exp. Med., 195:953-958 (2002), using 100 ng/ml murine Flt3-ligand (Peprotech) supplemented media. Femurs and tibiae of female Balb/C mice were isolated and rinsed in sterile PBS. The ends of bones were cut and marrow harvested in complete media (RPMI 1640, 10% heat inactivated FBS, 1% penicillin/streptomycin, 2 mM L-glutamine, 1 mM sodium pyruvate, 25 mM HEPES, 50 μM 2-mercaptoethanol). Bone marrow cells were passed through a 70 μm strainer and centrifuged at 1000 rpm for 7 min. and resuspended in complete media supplemented with 100 ng/ml murine Flt3L to 2×10^6 cells/ml. 2 ml of cells were seeded in 6-well plates and 1 ml fresh media was added every two to three days. On day 9 of culture, non-adherent cells were washed in complete media and plated into 96-well plates at concentrations ranging from 0.5 to 2.5×10^5 cells/well. […]
Cytokine ELISA. All cytokines were quantified using sandwich ELISA kits according to the manufacturer's instructions. […]

In series [2] the target is T1, TLR7. Description: In vivo inhibition of loxoribine-mediated cytokine induction in mice. On the set-up: from tissue; host or cells: whole animal: female Balb/C mice, plasma cytokines; species or system Balb/C mice. How it is done: Cytokine ELISA. All cytokines were quantified using sandwich ELISA kits according to the manufacturer's instructions. These were mouse and human IFN-α (PBL Biomedical; Piscataway, N.J.) and IL-6 (eBioscience; San Diego, Calif.).
In Vivo Cytokine Induction. Animal studies were performed at Protiva Biotherapeutics in accordance with Canadian Council on Animal Care guidelines and following protocol approval by the local Animal Care and Use Committee. Female Balb/C mice were subjected to a two-week quarantine and acclimation period prior to use at six to eight-weeks of age. RNA formulations were administered by standard injection in the lateral tail vein in 0.2 ml PBS. Six hours after injection, blood was collected by cardiac puncture and processed as plasma for cytokine analysis. In experiments studying inhibition of cytokine induction by loxoribine, formulated RNA (100 μg) was administered IV 2 h prior to IV administration of 1 mg loxoribine in PBS. Blood was collected by cardiac puncture 2 h after administration of loxoribine and processed as plasma for cytokine analysis.

Setting [3] is: 100 μg formulated RNA IV 2 h prior to 1 mg Lox IV, plasma 2 h after Lox.

“polyUmod21: 2′OMe-uridine homopolymer of 21 nucleotides in length (UUUUUUUUUUUUUUUUUUUUU; all 2'-O-methyl, backbone not given here)”: in the series with TLR7 [1], the “IFN-α production induced by immunostimulatory ssRNA when co-administered” value was “completely abrogated measurable” and the “IL-6 production induced by immunostimulatory ssRNA when co-administered” value is on record as “completely abrogated measurable”. Moreover, in the series with TLR7 [2] (setting [3]), the “reduction of plasma IFN-α compared to PBS pre-treatment” value worked out at 79%+/−5%, the “reduction of plasma IFN-α compared to mice treated with GFP-S ssRNA” value turned out to be 92%+/−2%, the “reduction of plasma IL-6 compared to PBS pre-treatment” value was found to be 72%+/−8% and the “reduction of plasma IL-6 compared to mice treated with GFP-S ssRNA” value is 96%+/−1%. Besides, the “loxoribine-mediated cytokine induction relative to GFP-S ssRNA and PBS treated mice” value with TLR7 [2] (pre-treatment 2 h prior to 1 mg Lox) is “significantly reduced”.
